2 compounds from patent publication US9950026B2, “Methods for reducing oxidative damage” (Cornell Research Foundation, Inc., priority 2004, dated 2018) can be followed below.

Experiment [1] deals with N2A cells. The experiment in a line: Caspase-9 activity (FLICA) after tBHP. The class given is cell-based, murine. The settings on record: 50 μM tBHP, 12 h, 1 nM SS-31. The procedure:
FIG. 21A-B. SS-31 prevented caspase activation in N2A cells treated with tBHP. […] (B)(a-c) N2A cells were treated with 50 μM tBHP for 12 h and stained with caspase-9 FLICA™ kit containing red fluorescent inhibitor SR-LEHD-FMK and Hoechst 33342.

For the next experiment, the system named is SH-SY5Y cells. The experiment in a line: Apoptosis by nuclear morphology (Hoechst 33342) after tBHP. The class given is cell-based, human. The procedure: FIG. 20A-20C. […] (A)(a-c; a′-c′) N2A cells were treated with 50 μM tBHP alone or with SS-31 for 12 h. Cells were stained with Hoechst 33342 for 20 min., fixed, and imaged by fluorescent microscopy. (a) Untreated cells show uniformly stained nuclei (a′). […] (c) Cells treated with tBHP and 1 nM SS-31 had less nuclear changes (c′). […] Apoptotic cells were counted using MetaMorph software. *P<0.01 compared to untreated cells; *P<0.01 compared to tBHP alone. […] SH-SY5Y cells were treated with 25 μM tBHP for 24 h. *P<0.01 compared to untreated cells; *P<0.01 compared to tBHP alone.
SH-SY5Y cells were grown on 96-well plates, treated with t-BHP (0.025 mM) in the absence or presence of SS-31 (10^−12M-10^−9M) at 37° C. for 24 h. All treatments were carried out in quadriplicates. Cells were then stained with […] Hoechst 33342 for 20 min, fixed with 4% paraformaldehyde, and imaged using a Zeiss fluorescent microscope (Axiovert 200M) equipped with the Zeiss Acroplan x20 objective. Nuclear morphology was evaluated using an excitation wavelength of 350±10 nm and a longpass filter of 400 nm for emission. All images were processed and analyzed using the MetaMorph software (Universal Imaging Corp., West Chester, Pa.). Uniformly stained nuclei were scored as healthy, viable neurons, while condensed or fragmented nuclei were scored as apoptotic.

For the next experiment, the system named is G93A mice. The experiment in a line: Lumbar spinal cord cell counts and immunostaining in ALS mice. It is filed as in vivo. From the text: FIG. 27. Attenuation of motor neuron loss by SS-31 in the ventral horn of the lumbar spinal cord of G93A mice. Photomicrographs show cresyl violet stained sections through the ventral horn of the lumbar spinal cord from non-transgenic control (A) and G93A mice treated with vehicle (PBS) (B) or SS-31 (C) at 110 days of age. […] Values are mean±standard error of means.
FIG. 28A-28C. 4-hydroxynonenol immunostaining. Photomicrographs of representative sections through the ventral horn of the lumbar spinal cord of wild-type control (A), and G93A mice treated with vehicle (B) or SS-31 (C) show generalized reduction of 4-hydroxynonenal staining in neurons and neurophils in drug-treated mice.
FIG. 29A-29C. Nitrotyrosine immunostaining. Photomicrographs of representative sections through the ventral horn of the lumbar spinal cord of wild-type control (A), and G93A mice treated with vehicle (B) or SS-31 (C) show generalized reduction of nitrotyrosine staining in neurons and neurophils in drug-treated mice.

The next experiment relates to SN-4741 cells. Put plainly: MPP+ toxicity, apoptosis by Hoechst 33342. The class given is cell-based. The conditions noted are these: 50 μM MPP+, 1 nM SS-31, 48 h. As to the method:
(A) SS-31 protects dopamine cells against MPP^+ toxicity. SN-4741 cells were treated with buffer, 50 μM MPP^+ or 50 μM MPP^+ and 1 nM SS-31, for 48 h, and the incidence of apoptosis was determined by fluorescent microscopy with Hoechst 33342.

In experiment [2] the test system is G93A-SOD transfected murine neuroblastoma (N2A) cells. Put plainly: H2O2-induced cell death (LDH release). The class given is cell-based. The conditions noted are these: SS-31 between 1 and 100 μM added 1 h after exposure to H2O2. The procedure:
FIG. 24. Increased hydrogen peroxide (H2O2) sensitivity of G93A-SOD transfected murine neuroblastoma (N2A) cells as compared to wildtype SOD-transfected N2A cells after addition of 0.5 or 1 mM H2O2 for 1 h. Cell death was quantified by measurement of the percentage of H2O2-induced LDH release of total cellular LDH-content. […] Values are means+S.D., n=4-5, *p<0.1, **p<0.05, Student's t-test.
(Release of lactate dehydrogenase indicates damage to the cell membrane.)

In experiment [3] the test system is isolated guinea pig hearts. Put plainly: Isolated hearts, 18 h cold ischemia followed by warm reperfusion. The conditions noted are these: 1 nM SS-31 in cardioplegic solution, 18 h at 4° C. As to the method:
Isolated guinea pig hearts were perfused in a retrograde manner in a Langendorff apparatus with a cardioplegic solution (St. Thomas solution) without or with SS-31 (1 nM) for 3 min. and then clamped and stored at 4° C. for 18 h. Subsequently, the hearts were remounted in the Langendorff apparatus and reperfused with Krebs-Henseleit solution at 34° C. for 90 min. Hearts were then rapidly fixed and paraffin-embedded.
(B) Immunohistochemical analysis of HNE-modified proteins in paraffin sections from guinea pig hearts stored without (a) or with (b) SS-31 (1 nM). (c) Background staining without primary antibody.
Apoptosis was assessed by the TUNEL stain (green) and nuclei are visualized by DAPI (blue).

Experiment [4] has as its system N2A cells. The experiment in a line: Phosphatidylserine translocation, Annexin V and propidium iodide staining after tBHP. The class given is cell-based, murine. The conditions noted are these: 50 μM tBHP, 1 nM SS-31, 6 h. The procedure:
FIG. 19A-19C. […] N2A cells were incubated with 50 μM tBHP for 6 h and stained with Annexin V and propidium iodide (PI). […] Combined staining with Annexin V and PI (red) indicate late apoptotic cells.
The translocation of phosphatidylserine from the inner leaflet of the plasma membrane to the outer leaflet is observed early in the initiation of apoptosis. This can be observed with Annexin V, a phospholipid binding protein with high affinity for phosphatidylserine.

The nature of experiment [5]: Scavenging of H2O2, luminol-induced chemiluminescence. It is filed as biochemical. The conditions noted are these: H2O2 4.4 nmol, 20 min, 37° C. The procedure: Effect of SS-02 and SS-05 (Dmt-D-Arg-Phe Orn-NH2) on H2O2 as measured by luminol-induced chemiluminescence, 25 μM luminol and 0.7 IU horseradish peroxidase were added to the solution of H2O2 (4.4 nmol) and peptide, and chemiluminescence was monitored with a Chronolog Model 560 aggregometer (Havertown, Pa.) for 20 min at 37° C.

The subject of experiment [6] is isolated mouse liver mitochondria. The experiment in a line: H2O2 production by isolated mitochondria, luminol chemiluminescence. It is filed as biochemical.

Where a SMILES comes first, the peptide text is derived from it. [ ]: non-standard residue; d: D form. Dmt = Cc1cc(O)cc(C)c1C[C@H](N)C(=O)O

Turning to `Cc1cc(O)cc(C)c1C[C@H](NC(=O)[C@H](N)CCCNC(=N)N)C(=O)N[C@@H](CCCCN)C(=O)N[C@@H](Cc1ccccc1)C(N)=O` [SS-31, D-Arg-2′6′-Dmt-Lys-Phe-NH2] (H-[dR][Dmt]KF-NH2; N-terminus assumed), in the experiment on N2A cells [1], the “cells showing caspase-9 staining” value was “reduced the number of cells showing caspase-9 staining”. The “number of apoptotic cells” value in the experiment with SH-SY5Y cells (25 μM tBHP, 24 h) was “dose-dependently reduced”. Also, the “apoptosis induced by a low dose of t-BHP” value with SH-SY5Y cells (0.025 mM t-BHP, 1 nM SS-31, 24 h) is given as “prevents apoptosis”. Further, the “percent of apoptotic cells” value in the experiment on SH-SY5Y cells (24 h, t-BHP 0.05 mM) is “dose-dependently reduced”. Also, the “cell loss in the lumbar spinal cord (stereological cell counts)” value in the experiment on G93A mice (mouse, in vivo) is “significantly ameliorated”. Besides, in the experiment on G93A mice (spinal cord), the “3-nitrotyrosine immunostaining (protein nitration)” value is reported as “markedly reduced” and the “4-hydroxynonenenal immunostaining (lipid peroxidation)” value is “markedly reduced”. In addition, the “number of apoptotic cells” value in the experiment on SN-4741 cells is “reduced the number of apoptotic cells”. Also, in [2], the H2O2-induced cell death result is “significantly reduced”. Also, in experiment [3], the “apoptosis in endothelial cells and myocytes (TUNEL)” value was “prevents apoptosis”; the coronary flow entry is recorded as “significantly improved”; the “lipid peroxidation (HNE-modified proteins)” value was “Reduces Lipid Peroxidation”. In the experiment on N2A cells [4], the “Annexin V-positive cells” value is on record as “reduction” and the propidium iodide staining entry was “no propidium iodide staining”.
Take 2′,6′-Dmt-Arg-Phe-Lys-NH2 [SS-02]: the “luminol response (H2O2 scavenging)” value in experiment [5] is “dose-dependently inhibited”. Besides, in [6] (antimycin 1 μM, peptide 1.0 μM), the “antimycin-induced increase in H2O2 production” value was “completely blocked”. Also, in experiment [6] (basal, 10 μM), the “amount of H2O2 production” value is on record as “significantly reduced”.
